Source: patent EP0956287B1, “3-ARYL-2-(1-SUBSTITUTED-4-PIPERIDINYL)-1(1-DI)OXO-3H-BENZO D]-ISOTHIAZOLE DERIVATIVES, THEIR PREPARATION AND THEIR USE AS MODULATORS OF NEUROTRANSMITTER FUNCTION” (Aventis Pharmaceuticals Inc., priority 1996, dated 1998)
Where a name gives a salt, the structure may show the parent alone.

Key:
Type in all cases: biochemical
[1] = biological target: T1, norepinephrine (NE) uptake (Rattus norvegicus, UniProt Q63380); experiment: Inhibition of [3H]-norepinephrine uptake in rat whole brain or hypothalamic synaptosomes; details: [3H]-NE 50 nM
T1 construct: Either whole brain minus cerebella or hypothalamus is weighed and homogenized in 9 volumes of ice-cold 0.32 M sucrose; from tissue; host or cells: rat whole brain minus cerebella or hypothalamus, crude synaptosomal supernatant (S1)
Protocol: Inhibition of [^3H]-Norepinephrine Uptake in Rat Whole Brain or Hypothalamic Synaptosomes
This assay is used as a biochemical screen for potential antidepressants which block norepinephrine uptake.
(§1) A. Animals: Male CR Wistar rats (100-125 g).
(§2) 1. Krebs-Henseleit Bicarbonate Buffer, pH 7.4 (KHBB): Make a 1 liter batch, containing the following salts.
Aerate for 60 minutes with 95% O2/5% CO2, check pH (7.4±0.1); then add bovine serum albumin (Sigma cat#A-7906) 1 mg/ml. 2. 0.32M Sucrose: 21.9 g of sucrose, bring to 200 ml. 3. L(-)-Norepinephrine bitartrate is obtained from Sigma Chemical Co. A 0.1 mM stock solution is made up in 0.01 N HCl. This is used to dilute the specific activity of theradiolabeled NE. 4. Levo-[Ring-2,5,6-^3H]-Norepinephrine (40-50 Ci/mmol) is obtained from New England Nuclear. The final desired concentration of [^3H]-NE in the assay is 50 nM. The dilution factor is 0.8. Therefore, the KHBB is made up to contain 62.5 nM [^3H]-NE. Add to 100 ml of KHBB.
5. For most assays, a 1 mM stock solution of the test compound is made up in a suitable solvent and serially diluted such that the final concentration in the assay ranges from 2 x 10^-8 to 2 x 10^-5 M. Seven concentrations are used for each assay. Higher or lower concentrations may be used depending on the potency of the compound.
Male Wistar rats are decapitated and the brain rapidly removed. Either whole brain minus cerebella or hypothalamus is weighed and homogenized in 9 volumes of ice-cold 0.32 M sucrose using a Potter-Elvejhem homogenizer. Homogenization should be done with 4-5 up and down strokes at medium speeds to minimize synaptosome lysis. TH homogenate is centrifuged at 1000 g for 10 minutes at 0° 4°C. The supernatant (S1) is decanted and is used for uptake experiments.
• 800 µl KHBB [^3H]-NE • 20 µl Vehicle or appropriate drug concentration • 200 µl Tissue suspension
Tubes are incubated at 37°C, under a 95% O2/5% CO2 atmosphere for 5 minutes. For each assay, 3 tubes are incubated with 20 µl of vehicle at 0°C in a ice bath. After incubation all tubes are immediately centrifuged at 4000 g for 10 minutes. The supernatant fluid is aspirated and the pellets dissolved by adding 1 ml of solubilizaer (Triton® X-100 + 50% EtOH, 1:4 v/v). The tubes are vigorously shaken decanted into scientillation vials, and counted in 10 ml of Liquiscint® scintillation countering cocktail. Active uptake is the difference between cpm at 37°C. and 0°C. The percent inhibition at each drug concentration is the mean of three determinations IC50 values are derived from log-probit analysis.

[2] = biological target: T2, serotonin (5HT) uptake (Rattus norvegicus, UniProt P31652); experiment: Inhibition of [3H]-serotonin uptake in rat whole brain synaptosomes; details: [3H]-5 HT 50 nM
T2 construct: Whole brain minus cerebella is weighed and homogenized in 9 volumes of ice-cold 0.32 M sucrose; from tissue; host or cells: rat whole brain minus cerebella, crude synaptosomal supernatant (S1)
Protocol: Inhibition of [^3H]-Serotonin Uptake in Rat Whole Brain Synaptosomes
This assay is used a biochemical screen for compounds which block serotonin (5 HT) uptake, which may be useful as antidepressants and for the treatment of personality disorders such as obsessive compulsive disorder.
as §1, §2
Aerate for 60 minutes with 95% O2/5% CO2, check pH (7.4±0.1). 2. 0.32 M Sucrose: 21.9 g of sucrose, bring to 200 ml. 3. Serotonin creatinine SO4 is obtained from Sigma Chemical Co. A 0.1 mM stock solution is made up in 0.01N HCl. This is used to dilute the specific activity of radiolabeled 5 HT. 4. 5-[1,2-^3H(N)]-Hydroxytryptamine creatinine sulfate (Serotonin), specific activity 20-30 Ci/mmol is obtained from New England Nuclear. The final desired concentration of ^3H-5 HT in the assay is 50 nM. The dilution factor is 0.8. Therefore, the KHBB is made up to contain 62.5 nM [^3H]--5 HT. Add to 100 ml of KHBB.
5. For most assays, a 1 mM solution of the test compound is made up in suitable solvent and serially diluted such that the final concentration in the assay ranges from 2 x 10^-8 to 2 x 10^-5 M. Seven concentrations are used for each assay. Higher or lower concentrations may be used depending on the potency of the compound.
Male Wistar rats are decapitated and the brain rapidly removed. Whole brain minus cerebella is weighed and homogenized in 9 volumes of ice-cold 0.32 M sucrose using a Potter-Elvejhem homogenizer. Homogenization should be done with 4-5 up and down strokes at medium speeds to minimize synaptosome lysis. The homogenate is centrifuged at 1000 g for 10 minutes at 0° - 4°C. The supernatant (S1) is decanted and is used for uptake experiments.
• 800 µl KHBB + [^3H]-5 HT. • 20 µl Vehicle or appropriate drug concentration • 200 µl Tissue suspension
(§3) Tubes are incubated at 37°C under a 95% O2/5% CO2 atmosphere for 5 minutes. For each assay, 3 tubes are incubated with 20 µl of vehicle at 0°C in an ice bath. After incubation all tubes are immediately centrifuged at 4000 g for 10 minutes. The supernatant fluid is aspirated and the pellets dissolved by adding 1 ml of solubilizer (Triton® X-100 + 50% EtOH, 1:4 v/v). The tubes are vigorously shaken, decanted into scintillation vials, and counted in 10 ml of Liquicint® scintillation counting cocktail. Active uptake is the difference between cpm at 37°C and 0°C. The percent inhibition at each drug concentration is the mean of three determinations. IC50 values are derived from log-probit analysis.

[3] = biological target: T3, dopamine (DA) uptake (Rattus norvegicus, UniProt P23977); experiment: Inhibition of 3H-dopamine uptake in rat striatal synaptosomes; details: head says whole brain synaptosomes, method uses striatal synaptosomes, 3H-DA 50 nM
T3 construct: Corpora striata are rapidly removed, weighed and homogenized in 9 volumes of ice-cold 0.32 M sucrose; from tissue; host or cells: rat corpora striata, crude synaptosomal supernatant (S1)
Protocol: Inhibition of ^3H-Dopamine Uptake in Rat Striatal Synaptosomes
this assay is used to show differential drug effects on dopamine uptake versus nerepppinephrine uptake and to identify therapeutic agents for diseases where the potentiation of dopaminergic activity may be helpful (e.g. Parkinson's Disease).
as §1
1. Krebs-Henseleit Bicarbonate Buffer, pH 7.4 (KHBB): Make a 1 liter batch containing the following salts:
Aerate for 60 minutes with 95% O2/5% CO2, check pH (7.4±0.1). 2. 0.32 M Sucrose: 21.9 g of sucrose, bring to 200 ml. 3. Dopamine HCl is obtained from Sigma Chemical Co. A 0.1 mM stock solution is made up in 0.01N HCI. This is used to dilute the specific activity of radiolabeled 5 HT. 4. 3,4-[8-^3H(N)]-Dihydroxyphenylethylamine (Dopamine), specific activity 4-34 Ci/mmol is obtained from New England Nuclear. The final desired concentration of ^3H-DA in the assay is 50 nM. The dilution factor is 0.9. Therefore, the KHBB is made up to contain 55.5 nM [^3H]-5 DA. Add to 100 ml of KHBB.
5. For most assays, a 1mM stock solution of the test compound is made up in a suitable solvent and serially diluted such that the final concentration in the assay ranges from 2 x 10^-8 to 2 x 10^-5 M. Seven concentrations are used for each assay. Higher or lower concentrations may be used depending on the potency of the compound.
Male Wistar rats are decapitated and the brain rapidly removed. Corpora striata are rapidly removed, weighed and homogenized in 9 volumes of ice-cold 0.32 M sucrose using a Potter-Elvejhem homogenizer. Homogenization should be done with 4-5 up and down strokes at medium speeds to minimize synaptosome lysis. The homogenate is centrifuged at 1000 g for 10 minutes at 0°- 4°C. The supernatant (S1) is decanted and is used for uptake experiments.
• 900 µl KHBB + [^3H]-DA. • 20 µl Vehicle or appropriate drug concentration • 100 µl Tissue suspension
as §3, with “Liquiscint®” for “Liquicint®”

T3 sequence (P23977 whole entry): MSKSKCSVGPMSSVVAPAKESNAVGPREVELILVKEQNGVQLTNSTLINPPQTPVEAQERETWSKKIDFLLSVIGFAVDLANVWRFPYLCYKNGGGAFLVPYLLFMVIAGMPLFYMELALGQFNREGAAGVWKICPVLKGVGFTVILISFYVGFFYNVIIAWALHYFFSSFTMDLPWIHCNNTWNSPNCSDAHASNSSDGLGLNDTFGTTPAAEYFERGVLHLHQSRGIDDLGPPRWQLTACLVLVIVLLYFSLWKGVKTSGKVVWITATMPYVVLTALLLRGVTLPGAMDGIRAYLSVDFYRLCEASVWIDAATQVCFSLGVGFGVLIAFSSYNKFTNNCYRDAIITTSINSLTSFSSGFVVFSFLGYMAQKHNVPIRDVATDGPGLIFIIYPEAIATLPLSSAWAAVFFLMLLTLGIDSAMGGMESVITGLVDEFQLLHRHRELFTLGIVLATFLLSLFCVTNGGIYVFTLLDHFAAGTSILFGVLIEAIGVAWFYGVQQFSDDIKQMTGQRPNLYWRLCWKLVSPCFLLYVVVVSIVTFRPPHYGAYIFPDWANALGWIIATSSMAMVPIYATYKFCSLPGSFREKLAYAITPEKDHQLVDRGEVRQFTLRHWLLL
T2 sequence (P31652 whole entry): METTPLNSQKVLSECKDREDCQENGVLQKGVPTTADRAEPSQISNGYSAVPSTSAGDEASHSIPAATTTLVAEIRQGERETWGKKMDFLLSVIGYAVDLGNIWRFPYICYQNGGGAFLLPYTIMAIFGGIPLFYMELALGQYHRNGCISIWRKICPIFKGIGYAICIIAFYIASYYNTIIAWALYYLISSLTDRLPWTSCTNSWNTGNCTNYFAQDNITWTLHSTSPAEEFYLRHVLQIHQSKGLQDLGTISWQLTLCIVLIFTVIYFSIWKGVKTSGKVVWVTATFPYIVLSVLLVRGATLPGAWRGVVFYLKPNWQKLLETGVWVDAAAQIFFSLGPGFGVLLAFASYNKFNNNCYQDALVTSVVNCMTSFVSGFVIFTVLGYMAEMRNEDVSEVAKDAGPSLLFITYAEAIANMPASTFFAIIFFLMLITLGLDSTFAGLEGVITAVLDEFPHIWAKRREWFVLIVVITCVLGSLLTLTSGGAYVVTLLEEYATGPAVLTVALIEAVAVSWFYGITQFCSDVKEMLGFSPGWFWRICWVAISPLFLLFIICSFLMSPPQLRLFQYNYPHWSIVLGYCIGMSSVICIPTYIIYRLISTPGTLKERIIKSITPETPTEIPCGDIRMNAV
T1 sequence (Q63380 1-617): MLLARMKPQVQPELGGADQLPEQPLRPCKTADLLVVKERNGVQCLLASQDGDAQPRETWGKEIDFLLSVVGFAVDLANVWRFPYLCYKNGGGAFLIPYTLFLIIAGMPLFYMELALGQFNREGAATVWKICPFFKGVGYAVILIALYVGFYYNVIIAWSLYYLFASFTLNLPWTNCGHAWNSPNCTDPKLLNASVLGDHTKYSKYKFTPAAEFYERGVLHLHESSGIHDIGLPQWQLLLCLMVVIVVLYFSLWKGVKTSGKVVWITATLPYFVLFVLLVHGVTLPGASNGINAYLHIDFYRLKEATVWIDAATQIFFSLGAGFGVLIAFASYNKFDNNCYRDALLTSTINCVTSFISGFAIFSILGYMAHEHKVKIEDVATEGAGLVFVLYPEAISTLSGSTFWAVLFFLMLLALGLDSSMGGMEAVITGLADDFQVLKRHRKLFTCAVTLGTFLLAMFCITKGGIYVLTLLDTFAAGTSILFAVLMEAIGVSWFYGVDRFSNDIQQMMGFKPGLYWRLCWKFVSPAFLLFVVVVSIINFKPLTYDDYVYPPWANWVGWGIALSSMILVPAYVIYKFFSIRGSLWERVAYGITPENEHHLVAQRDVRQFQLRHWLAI

| Compound | Whole brain synaptosomes % inhibition at 3.16 µm NE [1] [%] | Whole brain synaptosomes % inhibition at 3.16 µm 5HT [2] [%] | Whole brain synaptosomes % inhibition at 3.16 µm DA [3] [%] |
| --- | --- | --- | --- |
| COc1cc(C(C)=O)ccc1OCCCN1CCC(N2C(c3ccc(Cl)cc3)c3ccccc3S2(=O)=O)CC1 (stereo not drawn) [1-[4-(3-{4-[3-(4-Chlorophenyl)-1,1-dioxo-3H-benzo[d]isothiazol-2-yl]-1-piperidin-1-yl}-propoxy)-3-methoxyphenyl]-ethanone maleate] | 55.23 | 48.78 | 67.94 |
| O=C(O)/C=C\C(=O)O.O=C1c2ccccc2C(=O)N1CCCN1CCC(N2C(c3ccc(Cl)cc3)c3ccccc3S2(=O)=O)CC1 (stereo not drawn) [2-(3-{4-[3-(4-Chlorophenyl)-1,1-dioxo-3H-benzo[d]isothiazol-2-yl]piperidin-1-yl}propyl)-isoindol-1,3-dione maleate] | 28.37 | 29.02 | 57.36 |
| Cl.O=S1(=O)c2ccccc2C(c2ccc(F)cc2)N1C1CCNCC1 (stereo not drawn) [3-(4-Fluorophenyl)-2-(4-piperidinyl)-2,3-dihydrobenzo[d]isothiazole-1,1-dioxide hydrochloride] | 25.02 | 37.92 | 30.34 |
| O=C(O)/C=C\C(=O)O.O=S1(=O)c2ccccc2C(c2ccc(Cl)cc2)N1C1CCN(CCO)CC1 (stereo not drawn) [2-{4-[3-(4-Chlorophenyl)-1,1-dioxo-3H-benzo[d]isothiazol-2-yl]-piperidin-1-yl}-ethanol maleate] | 8.71 | 3.68 | 18.71 |
